Assay results published in patent publication US7479277B2, “Method for reducing intraocular pressure using integrin-linked kinase inhibitor” (Wisconsin Alumni Research Foundation, priority 2005, dated 2009).

System: cultured human trabecular meshwork (HTM) cells
Test: HTM cell spreading on fibronectin III7-10 coated coverslips, immunofluorescence microscopy
Type: cell-based
Procedure: A cultured human trabecular meshwork (HTM) diploid cell strain obtained from trabecular meshwork explants was serum-starved for twenty-four hours and then plated on 12 mm round glass coverslips (Bellco Glass, Inc.; Vineland, N.J.) coated with III7-10 domains of fibronectin (RGD cell-binding domain; 236 nM) for three hours at 37° C., 95% humidity, 5% CO2, ambient air. The cells were exposed to either DMSO (control) or an ILK inhibitor with or without 472 nM of the Hep II domain. Following incubation, cells were fixed for immunofluorescence microscopy by methods known to a skilled artisan.
HTM cells were examined by immunofluorescence microscopy using anti-vinculin (1:3000; Sigma-Aldrich; St. Louis, Mo.), anti-ILK (1:1000; Upstate Group, LLC; Charlottesville, Va.), anti-talin (1:1000; Chemicon; Temecula, Calif.), anti-paxillin (1:1000; BD Biosciences; San Jose, Calif.) or anti-FAK (1:1000; BD Biosciences) antibodies to reveal actin stress fibers and focal adhesions. […] Cell images were acquired with a Zeiss AxioCam HRm camera mounted on a Zeiss Axiophan 2 Imaging fluorescence microscope together with AxioVision v.3.1 software. The percentage of spread cells was determined by counting polygonal cells containing stress fibers (spread cells) versus rounded cells lacking stress fibers (non-spread cells) from eight to twelve fields.

Structure (SMILES): O=c1cc(N2CCOCC2)oc2c(-c3ccccc3)cccc12 [LY29400]
- percentage of spread cells (LY29400 25 μM added to ILK inhibitor plus soluble Hep II domain 472 nM, p<0.008): 28%
- percentage of spread cells (administered alone, compared to control cells, p<0.2): 35%
